From US9302999B2, “Substituted triazoles as herbicides” (E. I. DU PONT DE NEMOURS AND COMPANY, priority 2012, dated 2016)

Key:
Type in all cases: in vivo
[1] = tested on: barnyardgrass (Echinochloa crus-galli); assay: Test A pre-/postemergence: barnyardgrass; conditions: for Barnyardgrass plant response rating: Postemergence; for Plant response rating, Barnyardgrass: Preemergence
Procedure, shortened: (§1)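 Pre: directed soil spray after planting in loam + sand. Post: same formulation (non-phytotoxic solvent + surfactant) on 1–2-leaf plants, 2–10 cm. Greenhouse ~10 d; visual injury 0–100 vs untreated.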

[2] = tested on: crabgrass, large (large crabgrass, Digitaria sanguinalis); assay: Test A pre-/postemergence: crabgrass, large; conditions: for Crabgrass, Large plant response rating: Postemergence; for Plant response rating, Crabgrass, Large: Preemergence
Procedure, shortened: as §1

[3] = tested on: foxtail, giant (giant foxtail, Setaria faberii); assay: Test A pre-/postemergence: foxtail, giant; conditions: for Foxtail, Giant plant response rating: Postemergence; for Plant response rating, Foxtail, Giant: Preemergence
Procedure, shortened: as §1

[4] = tested on: morningglory (Ipomoea spp.); assay: Test A pre-/postemergence: morningglory; conditions: for Morningglory plant response rating: Postemergence; for Plant response rating, Morningglory: Preemergence
Procedure, shortened: as §1

[5] = tested on: pigweed (Amaranthus retroflexus); assay: Test A pre-/postemergence: pigweed; conditions: for Pigweed plant response rating: Postemergence; for Plant response rating, Pigweed: Preemergence
Procedure, shortened: as §1

[6] = tested on: velvetleaf (Abutilon theophrasti); assay: Test A pre-/postemergence: velvetleaf; conditions: for Velvetleaf plant response rating: Postemergence; for Plant response rating, Velvetleaf: Preemergence
Procedure, shortened: as §1

[7] = tested on: wheat (Triticum aestivum); assay: Test A pre-/postemergence: wheat; conditions: for Wheat plant response rating: Postemergence; for Plant response rating, Wheat: Preemergence
Procedure, shortened: as §1

[8] = tested on: corn (Zea mays); assay: Test A pre-/postemergence: corn; conditions: for Corn plant response rating: Postemergence; for Plant response rating, Corn: Preemergence
Procedure, shortened: as §1

[9] = tested on: rice (Oryza sativa); assay: Test C flooded paddy test: rice; conditions: scale 0 to 100 (0 no effect, 100 complete control)
Procedure, shortened: (§2)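 2-leaf stage plants; pots flooded 3 cm above soil; compound applied into paddy water, depth maintained. Greenhouse 13–15 d. Visual rating vs controls, 0–100 (0 = no effect, 100 = complete control); dash = no result.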

[10] = tested on: sedge, umbrella (small-flower umbrella sedge, Cyperus difformis); assay: Test C flooded paddy test: sedge, umbrella; conditions: scale 0 to 100 (0 no effect, 100 complete control)
Procedure, shortened: as §2

[11] = tested on: ducksalad (Heteranthera limosa); assay: Test C flooded paddy test: ducksalad; conditions: scale 0 to 100 (0 no effect, 100 complete control)
Procedure, shortened: as §2

[12] = tested on: barnyardgrass (Echinochloa crus-galli); assay: Test C flooded paddy test: barnyardgrass; conditions: scale 0 to 100 (0 no effect, 100 complete control)
Procedure, shortened: as §2

[13] = 125 g ai/ha, 0 to 100 scale, 0 is no effect, 100 is complete control
[14] = 500 g ai/ha, visual rating on 0 to 100 scale (0 no effect, 100 complete control), approximately ten days
[15] = 125 g ai/ha, 0 to 100 scale (0 no effect, 100 complete control)
[16] = 500 g ai/ha, 0 to 100 scale, 0 is no effect, 100 is complete control
[17] = Flood (flooded paddy test), 62 g ai/ha, visual rating after 13 to 15 days
[18] = Flood (flooded paddy test), 125 g ai/ha, visual rating after 13 to 15 days
[19] = Flood (flooded paddy test), 250 g ai/ha, visual rating after 13 to 15 days

Cc1nn(-c2ccc(F)cc2)nc1Cn1cnc(C(F)(F)F)c1Cl [Compound 36]
0: Barnyardgrass plant response rating [1, 13] | Barnyardgrass plant response rating [1, 14] | Plant response rating, Barnyardgrass [1, 15] | Plant response rating, Barnyardgrass [1, 16] | Crabgrass, Large plant response rating [2, 13] | Crabgrass, Large plant response rating [2, 14] | Plant response rating, Crabgrass, Large [2, 15] | Foxtail, Giant plant response rating [3, 13] | Foxtail, Giant plant response rating [3, 14] | Plant response rating, Foxtail, Giant [3, 15] | Plant response rating, Foxtail, Giant [3, 16] | Morningglory plant response rating [4, 13] | Morningglory plant response rating [4, 14] | Plant response rating, Morningglory [4, 15] | Plant response rating, Morningglory [4, 16] | Pigweed plant response rating [5, 13] | Plant response rating, Pigweed [5, 15] | Plant response rating, Pigweed [5, 16] | Velvetleaf plant response rating [6, 13] | Plant response rating, Velvetleaf [6, 15] | Plant response rating, Velvetleaf [6, 16] | Wheat plant response rating [7, 13] | Wheat plant response rating [7, 14] | Plant response rating, Wheat [7, 15] | Plant response rating, Wheat [7, 16] | Corn plant response rating [8, 13] | Corn plant response rating [8, 14] | Plant response rating, Corn [8, 15] | Plant response rating, Corn [8, 16] | Plant response rating, Rice [9, 17] | Plant response rating, Rice [9, 18] | Plant response rating, Rice [9, 19] | Plant response rating, Rice ([9]; Flood, 31 g ai/ha) | Plant response rating, Sedge, Umbrella [10, 17] | Plant response rating, Sedge, Umbrella [10, 18] | Plant response rating, Sedge, Umbrella [10, 19] | Plant response rating, Sedge, Umbrella ([10]; Flood, 31 g ai/ha) | Plant response rating, Ducksalad [11, 17] | Plant response rating, Ducksalad [11, 18] | Plant response rating, Ducksalad [11, 19] | Plant response rating, Ducksalad ([11]; Flood, 31 g ai/ha) | Plant response rating, Barnyardgrass [12, 17] | Plant response rating, Barnyardgrass [12, 18] | Plant response rating, Barnyardgrass [12, 19] | Plant response rating, Barnyardgrass ([12]; Flood, 31 g ai/ha)
20: Pigweed plant response rating [5, 14]
10: Plant response rating, Crabgrass, Large [2, 16] | Velvetleaf plant response rating [6, 14]

Cc1nn(-c2cccc(C(F)(F)F)c2)nc1Oc1cc(C(F)(F)F)ncn1 [Compound 38]
0: Barnyardgrass plant response rating [1, 13] | Barnyardgrass plant response rating [1, 14] | Plant response rating, Barnyardgrass [1, 15] | Plant response rating, Barnyardgrass [1, 16] | Foxtail, Giant plant response rating [3, 13] | Foxtail, Giant plant response rating [3, 14] | Plant response rating, Foxtail, Giant [3, 15] | Morningglory plant response rating [4, 13] | Morningglory plant response rating [4, 14] | Plant response rating, Morningglory [4, 15] | Plant response rating, Morningglory [4, 16] | Pigweed plant response rating [5, 13] | Plant response rating, Pigweed [5, 15] | Velvetleaf plant response rating [6, 13] | Plant response rating, Velvetleaf [6, 15] | Plant response rating, Velvetleaf [6, 16] | Wheat plant response rating [7, 13] | Wheat plant response rating [7, 14] | Plant response rating, Wheat [7, 15] | Plant response rating, Wheat [7, 16] | Corn plant response rating [8, 13] | Corn plant response rating [8, 14] | Plant response rating, Corn [8, 15] | Plant response rating, Corn [8, 16] | Plant response rating, Rice [9, 17] | Plant response rating, Rice [9, 19] | Plant response rating, Sedge, Umbrella [10, 17] | Plant response rating, Sedge, Umbrella [10, 19] | Plant response rating, Ducksalad [11, 17] | Plant response rating, Ducksalad [11, 19] | Plant response rating, Barnyardgrass [12, 17] | Plant response rating, Barnyardgrass [12, 19]
10: Plant response rating, Pigweed [5, 16]
30: Pigweed plant response rating [5, 14]
50: Crabgrass, Large plant response rating [2, 14] | Plant response rating, Crabgrass, Large [2, 15]
20: Crabgrass, Large plant response rating [2, 13] | Plant response rating, Foxtail, Giant [3, 16]
60: Plant response rating, Crabgrass, Large [2, 16] | Velvetleaf plant response rating [6, 14]
